# Assay results: ChEMBL document CHEMBL1201862, “PubChem BioAssay data set” (2004)
# Calls of active or inactive are those of the source.
# Key:
# [1] = molecular target: T1, Type-1 angiotensin II receptor (Homo sapiens, UniProt P30556); assay: agonist activity at AGTR1 – cell-based, uHTS hits, selectivity assay for APJ receptor agonist project, dose response (AID 488865); assay type: functional;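 note: beta-arrestin recruitment to AT1 measured by enzyme fragment complementation luminescence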
# T1 sequence (P30556 whole entry): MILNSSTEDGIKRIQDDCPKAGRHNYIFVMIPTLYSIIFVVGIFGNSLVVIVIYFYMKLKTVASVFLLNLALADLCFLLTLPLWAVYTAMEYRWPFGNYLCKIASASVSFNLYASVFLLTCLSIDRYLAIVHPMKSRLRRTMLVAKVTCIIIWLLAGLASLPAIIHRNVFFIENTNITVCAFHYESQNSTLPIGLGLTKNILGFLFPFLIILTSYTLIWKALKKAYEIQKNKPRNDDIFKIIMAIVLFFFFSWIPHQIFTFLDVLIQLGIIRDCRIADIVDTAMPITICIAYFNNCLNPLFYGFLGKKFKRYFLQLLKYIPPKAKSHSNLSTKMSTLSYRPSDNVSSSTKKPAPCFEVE
# [2] = antiviral efficacy against SV40, host toxicity – BSC cells, set 3, confirmation (AID 485276); assay type: functional, cell-based
# [3] = molecular target: Large T antigen (Simian virus 40, UniProt P03070); assay: A confirmatory biochemical assay using the ADP-Hunter methodology, purified TAg, and ATP to quantify activity of synthesized compounds that inhibit the ATPase activity of Tag (3). [Related pubchem assays (depositor defined):AID1903, AID1909, AID2102, AID2501, AID2615, AID2775, AID435001, AID449729]; parameters: species or system Betapolyomavirus macacae
# Chain of Large T antigen (P03070 whole entry): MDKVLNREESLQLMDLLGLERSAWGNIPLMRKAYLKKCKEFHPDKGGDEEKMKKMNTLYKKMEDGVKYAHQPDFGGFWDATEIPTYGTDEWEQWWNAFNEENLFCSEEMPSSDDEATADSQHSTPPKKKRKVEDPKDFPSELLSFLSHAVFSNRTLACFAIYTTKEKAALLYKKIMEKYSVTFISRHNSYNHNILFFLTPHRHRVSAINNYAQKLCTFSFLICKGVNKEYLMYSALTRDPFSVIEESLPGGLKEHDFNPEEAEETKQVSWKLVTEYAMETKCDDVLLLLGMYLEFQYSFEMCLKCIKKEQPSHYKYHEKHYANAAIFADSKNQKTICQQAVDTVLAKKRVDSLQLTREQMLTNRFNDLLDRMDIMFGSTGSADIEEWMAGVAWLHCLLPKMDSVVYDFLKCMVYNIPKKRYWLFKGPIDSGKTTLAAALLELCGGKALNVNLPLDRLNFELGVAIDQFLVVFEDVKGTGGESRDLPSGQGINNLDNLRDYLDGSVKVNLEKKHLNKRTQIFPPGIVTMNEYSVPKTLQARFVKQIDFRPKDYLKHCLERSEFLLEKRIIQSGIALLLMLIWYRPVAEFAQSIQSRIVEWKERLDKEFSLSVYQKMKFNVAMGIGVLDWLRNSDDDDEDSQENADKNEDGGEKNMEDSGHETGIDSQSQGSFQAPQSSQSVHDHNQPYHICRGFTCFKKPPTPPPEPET
# [4] = molecular target: Troponin, cardiac muscle (Homo sapiens, UniProt P19429+P45379+P63316); assay: Fluorescence-based biochemical high throughput dose response assay for activators of the calcium sensitivity of cardiac Regulated Thin Filaments (RTF). [Related pubchem assays (depositor defined):AID493008, AID493018, AID504382, AID504383]; assay type: protein-complex assay
# [5] = molecular target: T2, Corticotropin-releasing factor receptor 2/Corticotropin-releasing factor-binding protein (Homo sapiens, UniProt P24387+Q13324); assay: activators of CRF receptor 2 with binding protein – uHTS hits, confirmation (AID 602473); assay type: functional; details: read-out: EC50_Mean
# T2 sequence (Q13324 whole entry): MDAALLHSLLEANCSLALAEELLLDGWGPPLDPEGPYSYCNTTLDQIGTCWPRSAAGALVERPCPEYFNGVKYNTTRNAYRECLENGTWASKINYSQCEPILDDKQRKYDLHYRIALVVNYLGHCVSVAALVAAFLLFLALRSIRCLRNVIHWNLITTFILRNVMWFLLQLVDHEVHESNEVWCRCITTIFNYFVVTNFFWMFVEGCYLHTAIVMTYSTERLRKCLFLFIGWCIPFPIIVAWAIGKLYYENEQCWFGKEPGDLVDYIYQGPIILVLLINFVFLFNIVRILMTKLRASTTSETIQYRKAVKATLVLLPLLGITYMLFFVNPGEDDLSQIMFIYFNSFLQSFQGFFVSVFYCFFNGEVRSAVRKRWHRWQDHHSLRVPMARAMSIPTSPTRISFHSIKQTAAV
# T2 sequence (P24387 whole entry): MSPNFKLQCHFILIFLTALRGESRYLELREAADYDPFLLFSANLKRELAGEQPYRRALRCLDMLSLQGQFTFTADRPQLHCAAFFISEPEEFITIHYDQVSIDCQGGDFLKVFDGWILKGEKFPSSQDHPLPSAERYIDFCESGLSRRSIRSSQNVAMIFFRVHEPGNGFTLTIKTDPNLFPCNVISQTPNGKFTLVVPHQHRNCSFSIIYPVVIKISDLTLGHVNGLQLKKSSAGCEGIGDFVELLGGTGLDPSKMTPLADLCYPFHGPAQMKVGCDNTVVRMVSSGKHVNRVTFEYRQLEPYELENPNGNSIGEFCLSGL
# [6] = molecular target: T3, Tyrosine-protein phosphatase non-receptor type 7 (Homo sapiens, UniProt P35236); assay: SAR analysis of chemical inhibitors of HePTP using a Fluorescent assay - Set 2. [Related pubchem assays (depositor defined):AID1059, AID1077, AID1661, AID2085, AID521]; assay type: functional
# T3 sequence (P35236 whole entry): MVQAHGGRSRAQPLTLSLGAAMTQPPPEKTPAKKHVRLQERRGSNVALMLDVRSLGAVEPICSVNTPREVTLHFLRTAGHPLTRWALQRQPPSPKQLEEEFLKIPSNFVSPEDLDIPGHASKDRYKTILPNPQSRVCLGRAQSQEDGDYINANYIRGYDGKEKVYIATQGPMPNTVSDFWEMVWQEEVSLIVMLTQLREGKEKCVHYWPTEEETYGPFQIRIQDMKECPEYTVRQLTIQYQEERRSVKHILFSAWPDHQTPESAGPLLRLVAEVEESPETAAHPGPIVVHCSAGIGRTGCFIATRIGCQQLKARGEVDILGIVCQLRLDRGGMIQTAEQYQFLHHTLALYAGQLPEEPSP
# [7] = molecular target: Dual specificity protein phosphatase 3 (Homo sapiens, UniProt P51452); assay: SAR VHR1 Fluorescent Assay for In Vitro dose response studies Set 2. [Related pubchem assays (depositor defined):AID1654, AID1661, AID1878]; assay type: functional
# Chain of Dual specificity protein phosphatase 3 (P51452 whole entry): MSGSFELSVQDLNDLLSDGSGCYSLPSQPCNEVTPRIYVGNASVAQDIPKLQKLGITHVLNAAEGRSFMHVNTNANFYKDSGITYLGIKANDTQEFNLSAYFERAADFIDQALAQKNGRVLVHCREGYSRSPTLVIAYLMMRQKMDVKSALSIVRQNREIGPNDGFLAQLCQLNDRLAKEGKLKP
# [8] = NIH-3T3 fibroblast cytotoxicity, dose response, cytotoxicity control, cell-based, fluorescence, Alamar Blue, secondary assay (AID 2327); assay type: functional;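 note: NIH-3T3 mouse fibroblasts cultured with fluconazole at 8 µg/mL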
# [9] = luciferase reporter signal suppression in cells – H4 neuroglioma cells, luminescence, dose response (AID 1990); assay type: functional, cell-based
# [10] = test system: BJ; assay: BJ-TERT fibroblast viability loss – cell-based, RAS-independent, luminescence, dose response (AID 1933); assay type: functional; details: Homo sapiens
# [11] = Luminescence Cell-Based Dose Response HTS to Identify Inhibitors of 5'UTR Stem-Loop Driven Prion Protein mRNA Translation in H4 Neuroglioblastoma Cells. [Related pubchem assays: 1827 (Project Summary), 1813 (Primary HTS)]; assay type: functional
# [12] = alpha-synuclein stem-loop luciferase translation blockers – H4 neuroglioma cells, luminescence, confirmation (AID 1988); assay type: functional, cell-based
# [13] = test system: BJ; assay: cells; assay type: functional, cell-based; details: Homo sapiens
# [14] = fluconazole-exposed Candida albicans growth modulators – fluorescence, retest, confirmation (AID 2467); assay type: functional, cell-based
# [15] = DRD fibroblast viability loss – cell-based, non-viral oncogenic, luminescence, dose response (AID 1934); assay type: functional; details: Homo sapiens
# [16] = molecular target: T4, Hexokinase HKDC1 (Homo sapiens, UniProt Q2TB90); assay: activation of HKDC1 glucose phosphorylation – biochemical, W721R variant, dose response (AID 504730); assay type: functional
# T4 sequence (Q2TB90 whole entry): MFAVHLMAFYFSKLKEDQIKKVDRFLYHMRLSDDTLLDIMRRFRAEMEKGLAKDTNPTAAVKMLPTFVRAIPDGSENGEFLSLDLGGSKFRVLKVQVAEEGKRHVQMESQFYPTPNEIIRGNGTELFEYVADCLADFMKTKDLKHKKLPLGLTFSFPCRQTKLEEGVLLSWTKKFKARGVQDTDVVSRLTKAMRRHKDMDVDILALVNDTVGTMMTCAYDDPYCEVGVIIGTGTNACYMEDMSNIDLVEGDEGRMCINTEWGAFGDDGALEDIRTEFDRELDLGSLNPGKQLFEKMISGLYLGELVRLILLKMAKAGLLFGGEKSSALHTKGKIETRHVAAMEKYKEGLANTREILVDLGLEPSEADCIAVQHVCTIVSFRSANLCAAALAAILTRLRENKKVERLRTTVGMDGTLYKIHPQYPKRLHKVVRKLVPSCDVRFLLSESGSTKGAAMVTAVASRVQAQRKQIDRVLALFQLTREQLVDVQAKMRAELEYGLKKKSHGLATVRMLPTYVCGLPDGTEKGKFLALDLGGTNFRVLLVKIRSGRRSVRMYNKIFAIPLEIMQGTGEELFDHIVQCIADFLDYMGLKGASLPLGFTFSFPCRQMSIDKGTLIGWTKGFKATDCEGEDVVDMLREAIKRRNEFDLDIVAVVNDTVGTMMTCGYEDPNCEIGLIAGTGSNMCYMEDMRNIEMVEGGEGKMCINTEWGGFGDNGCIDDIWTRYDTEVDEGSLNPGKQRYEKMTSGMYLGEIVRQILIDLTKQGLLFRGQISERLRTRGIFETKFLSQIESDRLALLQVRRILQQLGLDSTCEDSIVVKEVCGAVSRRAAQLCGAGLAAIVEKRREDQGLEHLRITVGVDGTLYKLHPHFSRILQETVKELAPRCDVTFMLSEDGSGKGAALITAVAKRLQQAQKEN
# [17] = HEK-293T viability loss after treatment – luminescence, T-cell screen hits, cytotoxicity control for TCR NF-kB inhibitor project, dose response (AID 489026); assay type: functional, cell-based;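 note: cells exposed to compound about 14 hours before the viability readout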
# [18] = molecular target: Hexokinase-1 (Homo sapiens, UniProt P19367); assay: HK1 enzyme activation by HKDC1 hits – biochemical, selectivity assay for HKDC1 activator project, dose response (AID 504762); assay type: functional
# Chain of Hexokinase-1 (P19367 whole entry): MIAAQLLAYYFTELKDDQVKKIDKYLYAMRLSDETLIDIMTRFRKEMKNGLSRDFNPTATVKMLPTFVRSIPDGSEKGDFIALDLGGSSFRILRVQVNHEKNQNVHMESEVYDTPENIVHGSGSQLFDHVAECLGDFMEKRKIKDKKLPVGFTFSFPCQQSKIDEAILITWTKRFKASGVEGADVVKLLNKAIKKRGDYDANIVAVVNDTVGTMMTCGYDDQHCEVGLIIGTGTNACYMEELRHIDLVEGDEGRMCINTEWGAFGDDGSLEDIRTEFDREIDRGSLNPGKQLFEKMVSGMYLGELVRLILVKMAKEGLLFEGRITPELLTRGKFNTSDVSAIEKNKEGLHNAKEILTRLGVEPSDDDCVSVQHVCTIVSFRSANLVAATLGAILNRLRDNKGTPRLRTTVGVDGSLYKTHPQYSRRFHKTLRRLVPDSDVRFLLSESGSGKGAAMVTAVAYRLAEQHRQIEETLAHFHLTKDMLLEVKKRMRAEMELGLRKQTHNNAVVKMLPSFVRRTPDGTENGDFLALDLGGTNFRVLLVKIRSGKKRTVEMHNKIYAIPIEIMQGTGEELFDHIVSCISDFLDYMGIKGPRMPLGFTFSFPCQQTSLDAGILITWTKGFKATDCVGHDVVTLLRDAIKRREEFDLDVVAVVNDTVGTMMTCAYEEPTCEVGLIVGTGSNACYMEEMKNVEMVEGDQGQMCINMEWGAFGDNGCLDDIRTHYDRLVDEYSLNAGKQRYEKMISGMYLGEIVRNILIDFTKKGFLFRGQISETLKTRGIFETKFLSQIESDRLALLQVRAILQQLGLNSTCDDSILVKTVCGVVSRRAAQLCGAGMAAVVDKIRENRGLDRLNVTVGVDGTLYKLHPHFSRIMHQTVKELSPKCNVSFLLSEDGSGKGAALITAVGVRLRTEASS
# [19] = test system: HEK293; assay: EBV LMP1 TES2 canonical NF-kB signalling blockers – cell-based, HEK293, luciferase, cherry-pick, dose response (AID 588343); assay type: functional; details: Homo sapiens
# [20] = molecular target: T5, Apoptotic protease-activating factor 1 (Homo sapiens, UniProt O14727); assay type: functional
# T5 sequence (O14727 whole entry): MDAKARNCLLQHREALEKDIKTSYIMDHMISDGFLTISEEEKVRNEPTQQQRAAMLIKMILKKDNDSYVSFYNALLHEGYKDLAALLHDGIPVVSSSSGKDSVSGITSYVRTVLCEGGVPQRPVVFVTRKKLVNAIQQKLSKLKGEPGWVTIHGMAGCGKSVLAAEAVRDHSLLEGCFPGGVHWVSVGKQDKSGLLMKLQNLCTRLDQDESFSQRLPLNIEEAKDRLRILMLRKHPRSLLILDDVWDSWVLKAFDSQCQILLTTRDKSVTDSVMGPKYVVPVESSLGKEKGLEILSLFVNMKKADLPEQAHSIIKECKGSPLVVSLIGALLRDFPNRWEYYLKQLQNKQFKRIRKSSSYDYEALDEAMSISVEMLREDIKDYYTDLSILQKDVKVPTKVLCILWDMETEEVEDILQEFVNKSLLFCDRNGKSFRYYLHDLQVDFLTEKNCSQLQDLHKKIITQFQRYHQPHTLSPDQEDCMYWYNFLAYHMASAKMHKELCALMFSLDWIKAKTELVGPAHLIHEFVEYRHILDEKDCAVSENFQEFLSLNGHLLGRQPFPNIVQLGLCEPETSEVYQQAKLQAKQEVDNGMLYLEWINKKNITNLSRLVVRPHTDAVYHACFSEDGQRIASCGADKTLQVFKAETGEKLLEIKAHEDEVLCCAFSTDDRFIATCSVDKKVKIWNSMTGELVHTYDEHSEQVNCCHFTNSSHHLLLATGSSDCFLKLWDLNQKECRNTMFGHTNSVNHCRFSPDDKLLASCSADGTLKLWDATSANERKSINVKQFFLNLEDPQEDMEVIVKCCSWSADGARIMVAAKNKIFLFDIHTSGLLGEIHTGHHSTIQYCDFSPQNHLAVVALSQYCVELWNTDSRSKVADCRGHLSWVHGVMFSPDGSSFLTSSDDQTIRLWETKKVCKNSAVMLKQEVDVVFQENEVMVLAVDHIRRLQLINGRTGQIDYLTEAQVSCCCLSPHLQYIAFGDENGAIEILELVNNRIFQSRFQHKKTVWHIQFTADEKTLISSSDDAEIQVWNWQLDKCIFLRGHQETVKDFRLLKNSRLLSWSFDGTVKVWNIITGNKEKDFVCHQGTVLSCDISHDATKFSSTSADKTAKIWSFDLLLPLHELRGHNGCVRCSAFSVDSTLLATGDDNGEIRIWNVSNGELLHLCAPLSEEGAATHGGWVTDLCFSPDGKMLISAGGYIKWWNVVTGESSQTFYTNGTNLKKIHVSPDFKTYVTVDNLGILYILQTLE
# [21] = test system: BJ; assay: growth inhibition of engineered Ras-driven BJ cells – cell-based, alamar blue fluorescence, cherrypicked samples, dose response (AID 2631); assay type: functional; details: Homo sapiens;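 note: confirmatory dose-response assay in RAS-dependent BJ fibroblasts engineered with TERT, LT and ST, with cytotoxicity read by fluorescence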
# [22] = test system: INS1; assay: INS-1E survival protection against cytokine death – cell-based, luminescence, retest, dose response (AID 449756); assay type: functional; details: Rattus norvegicus;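 note: cell death triggered by IL-1 beta plus TNF-alpha plus IFN-gamma mixture; protective hits raise ATP signal compared with cytokine alone wells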
# [23] = molecular target: Intestinal-type alkaline phosphatase (Homo sapiens, UniProt P09923); assay: human intestinal alkaline phosphatase activators, dose response, biochemical, luminescence, uHTS hits (AID 463120); assay type: functional
# Chain of Intestinal-type alkaline phosphatase (P09923 whole entry): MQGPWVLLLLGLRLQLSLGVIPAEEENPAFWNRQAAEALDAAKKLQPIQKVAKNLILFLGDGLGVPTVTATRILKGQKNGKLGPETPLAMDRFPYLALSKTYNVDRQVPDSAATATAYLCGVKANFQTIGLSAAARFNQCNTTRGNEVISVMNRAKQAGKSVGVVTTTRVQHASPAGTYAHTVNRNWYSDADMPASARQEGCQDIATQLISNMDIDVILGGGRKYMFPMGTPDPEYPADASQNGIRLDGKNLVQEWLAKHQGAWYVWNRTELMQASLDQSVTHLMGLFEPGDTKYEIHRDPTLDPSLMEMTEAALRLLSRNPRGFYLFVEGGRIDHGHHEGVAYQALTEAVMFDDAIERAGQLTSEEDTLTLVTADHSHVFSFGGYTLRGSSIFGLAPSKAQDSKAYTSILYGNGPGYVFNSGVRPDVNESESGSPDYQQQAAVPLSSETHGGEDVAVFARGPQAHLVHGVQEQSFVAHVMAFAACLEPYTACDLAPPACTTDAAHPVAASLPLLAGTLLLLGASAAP
smiles,measurement,setting,value
CCCCC1=CC2=CC(=O)C(C)(OC(=O)CC)C(=O)C2=CN1c1ccccc1 (stereo not drawn),EC50,[1],> 100 µM (inactive)
CC(C)c1cc(C(C)(C)c2ccc(O)c(C(C)C)c2)ccc1O,IC50,[2],11.9 µM (active)
same,IC50,[3],26.7 µM (active)
CCOC(=O)c1sc(-c2ccc(F)cc2)cc1NC(=O)Nc1ccccc1OC,EC50,[4],> 71.4 µM (inactive)
same,EC50,[5],> 53 µM (inactive)
O=S(=O)(c1ccc(NC(=S)N2CCN(Cc3ccc4c(c3)OCO4)CC2)cc1)N1CCOCC1,IC50,[6],79.6 µM (active)
same,IC50,[7],> 100 µM (inactive)
Cc1[nH]n(-c2ccccc2)c(=O)c1/C=N/Nc1nncc(-c2ccccc2)n1,EC50,[8],2.32 µM (active)
same,EC50,[9],0.733 µM (active)
same,EC50,[10],2.76 µM (active)
same,EC50,[11],0.155 µM (active)
same,EC50,[12],0.173 µM (active)
same,EC50,[13],3.06 µM (active)
same,EC50,[14],2.54 µM (active)
same,EC50,[15],2.39 µM (active)
same,EC50,[16],6.69 µM (active)
same,IC50,[17],> 80 µM (inactive)
same,EC50,[18],> 80 µM (inactive)
same,AC50,[19],2.45 µM (active)
same,IC50,[20],3.5 µM (active)
same,EC50,[21],0.471 µM (inconclusive)
same,AC50,[22],0.394 µM (active)
CCC1CCCCN1C1Sc2ccc(C(=O)OC)cc2NC1=O (stereo not drawn),EC50,[23],> 100 µM (inactive)
